Source: article PMC4774911, “Biochemical Screening of Five Protein Kinases from Plasmodium falciparum against 14,000 Cell-Active Compounds” (PLoS ONE, 2016)

How the values were obtained:
P. falciparum 3D7 cells = settings: P. falciparum 3D7; downloaded from ChEMBL ref F.J. Gamo et al., Nature 2010; cited from earlier work
DD2 = system: DD2; design: method as in F.J. Gamo et al., Nature 2010; settings: P. falciparum Dd2; downloaded from ChEMBL ref F.J. Gamo et al., Nature 2010; cited from earlier work
HepG2 cells = settings: HepG2 cells; downloaded from ChEMBL ref F.J. Gamo et al., Nature 2010; cited from earlier work
[1] = target: T1, Plasmodium falciparum calcium-dependent protein kinase 1 (CDPK1) (Plasmodium falciparum, UniProt P62344); assay: CDPK1 Kinase-Glo ATP-consumption screen and dose-response; format: biochemical; settings: hits below 1 uM; read-out: CDPK1 IC50
T1 construct: 6-Histidine (N); made in house
Method: Biochemical assays were performed in white 384-well plates (Nunc). Liquid transfers were done manually with 8-channel pipets. Compounds were initially tested in a single-point screen (final concentration 1 μM). […] The catalytic activity of each kinase was considered proportional to ATP consumed, as determined from measurements of residual [ATP] with the luciferase-based reagent Kinase-Glo (Promega) following incubation. Luminescence (proportional to residual [ATP]) was measured on the plate readers FLx800 (BioTek Instruments, Winooski, VT, USA) and MicroBeta^2 (PerkinElmer, Waltham, MA, USA). Incubation times were chosen to ensure near-complete ATP depletion in the absence of inhibition, thus maximizing the difference in signal between inhibited and uninhibited wells.
40 μM Syntide-2 was used as a substrate; BKI-1 [14] was used as a control inhibitor, while reaction mixtures lacking Syntide-2 were included as an additional negative control. Incubation time was 90 minutes. Reactions were terminated by adding excess EGTA (5 mM), which sequesters Ca^2+ and halts calcium-dependent kinase activity.

3D7 PFLDH = system: 3D7 PFLDH; design: method as in F.J. Gamo et al., Nature 2010; settings: downloaded from ChEMBL ref F.J. Gamo et al., Nature 2010; cited from earlier work

T1 sequence (P62344 whole entry): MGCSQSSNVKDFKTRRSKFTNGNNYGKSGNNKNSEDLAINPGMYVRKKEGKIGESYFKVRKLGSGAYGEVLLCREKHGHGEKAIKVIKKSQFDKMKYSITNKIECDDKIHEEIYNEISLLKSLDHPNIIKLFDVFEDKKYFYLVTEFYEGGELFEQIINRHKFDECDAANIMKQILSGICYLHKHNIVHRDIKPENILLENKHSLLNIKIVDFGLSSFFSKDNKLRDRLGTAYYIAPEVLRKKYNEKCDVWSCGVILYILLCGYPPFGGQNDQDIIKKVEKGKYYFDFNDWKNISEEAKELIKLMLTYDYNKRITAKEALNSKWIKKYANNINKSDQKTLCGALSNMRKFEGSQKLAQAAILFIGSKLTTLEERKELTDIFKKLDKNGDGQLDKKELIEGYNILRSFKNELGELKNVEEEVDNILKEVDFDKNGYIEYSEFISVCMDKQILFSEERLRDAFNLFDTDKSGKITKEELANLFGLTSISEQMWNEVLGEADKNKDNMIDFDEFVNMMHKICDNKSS

Row | SMILES | PCT_IHB_3D7 (P. falciparum 3D7 cells) | pXC50_3D7 (P. falciparum 3D7 cells) | PCT_INHB_DD2 (DD2) | PCT_INHIB_HEPG2 (HepG2 cells) | IC50 [1] [nM] | PCT_INHIB_3D7_PFLDH (3D7 PFLDH)
1 | CS(=O)(=O)Cc1ccc(Nc2nccc(-c3c(-c4cccc(NC(=O)c5c(F)cccc5F)c4)nn4ncccc34)n2)cc1 [TCMDC-135681] | 97 | 6.79 | 93 | 86 | 11 | 1
2 | CC(C)(CNCc1ccc(Cl)c(Cl)c1)c1nc(-c2ccc(Cl)c(O)c2)c(-c2ccncc2)[nH]1.Cl [TCMDC-140688] | 100 | 6.121 | 97 | 43 | 539 | 0
3 | CCNC(=O)Nc1ccc(-c2cnc(N)c(-c3nc4ccc(OC)cc4[nH]3)c2)cc1 [TCMDC-135321] | 100 | 6.302 | 43 | 51 | 145 | 1
4 | Nc1ncc(-c2cn[nH]c2)cc1-c1nc2ccc(Cl)cc2[nH]1 [TCMDC-133560] | 100 | 6.098 | 100 | 46 | 834 | 0
5 | CC(C)(CNCc1ccc(C(F)(F)F)cc1)c1nc(-c2ccnc(N)n2)c(-c2ccc(Cl)c(O)c2)[nH]1.Cl [TCMDC-141162] | 100 | 6.817 | 37 | 32 | 353 | 0
6 | CC(C)(CNCc1ccc(F)c(F)c1)c1nc(-c2ccnc(N)n2)c(-c2ccc(Cl)c(O)c2)[nH]1.Cl [TCMDC-141163] | 99 | 6.131 | 79 | 41 | 469 | 0
7 | COc1cccc(Nc2nccc(-c3c(-c4cccc(NC(=O)c5c(F)cccc5F)c4)nn4ccccc34)n2)c1 [TCMDC-135508] | 98 | 6.749 | 98 | 35 | 87 | 0
8 | CC(C)(CNC(=O)C1CCN(Cc2ccc(Cl)cc2)CC1)c1nc(-c2ccc(Cl)c(O)c2)c(-c2ccncc2)[nH]1.Cl [TCMDC-141138] | 100 | 6.206 | 83 | 36 | 347 | 0
9 | CN(C)CCOc1ccc(-c2cc(-c3ccnc(N)n3)c(-c3ccc(Cl)c(O)c3)o2)cc1 [TCMDC-141338] | 100 | 6.01 | 91 | 14 | 684 | 5
10 | COc1ccc(C(=O)NCC(C)(C)c2nc(-c3ccc(Cl)c(O)c3)c(-c3ccncc3)[nH]2)cc1OCCN(C(C)C)C(C)C.Cl [TCMDC-140736] | 100 | 6.192 | 96 | 62 | 387 | 4
11 | CCn1c(-c2nonc2N)nc2c(-c3cccc(NC(=O)Nc4ccc(Cl)cc4)c3)ncc(OCCCN)c21.O=C(O)C(F)(F)F [TCMDC-136152] | 96 | 6.082 | 72 | 26 | 44 | 0
12 | CC(C)(CNC(=O)C1CCN(CCOc2ccc(F)c(F)c2)CC1)c1nc(-c2ccc(Cl)c(O)c2)c(-c2ccncc2)[nH]1.Cl [TCMDC-141136] | 100 | 6.5 | 19 | 41 | 664 | 0
13 | Cl.Oc1cc(-c2nc(-c3ccccc3)[nH]c2-c2ccncc2)ccc1Cl [TCMDC-139660] | 96 | 6.089 | 91 | 64 | 975 | 0
14 | COc1cccc(CNCC(C)(C)c2nc(-c3ccc(Cl)c(O)c3)c(-c3ccncc3)[nH]2)c1.Cl [TCMDC-140687] | 100 | 6.159 | 98 | 74 | 275 | 0
